Measurements from patent publication EP0463456A1, “Phosphorus-containing HMG-CoA reductase inhibitors, new intermediates and their use” (E.R. SQUIBB & SONS, INC., priority 1990, dated 1992).

Molecular target: T1, Rat hepatic HMG-CoA reductase (Rattus norvegicus, UniProt P51639)
T1 construct: Livers are removed from 2-4 cholestyramine-fed, decapitated, Sprague Dawley rats, and homogenized in phosphate buffer A; from tissue; host or cells: liver microsomes of cholestyramine-fed Sprague Dawley rats
T1 sequence (P51639 1-887): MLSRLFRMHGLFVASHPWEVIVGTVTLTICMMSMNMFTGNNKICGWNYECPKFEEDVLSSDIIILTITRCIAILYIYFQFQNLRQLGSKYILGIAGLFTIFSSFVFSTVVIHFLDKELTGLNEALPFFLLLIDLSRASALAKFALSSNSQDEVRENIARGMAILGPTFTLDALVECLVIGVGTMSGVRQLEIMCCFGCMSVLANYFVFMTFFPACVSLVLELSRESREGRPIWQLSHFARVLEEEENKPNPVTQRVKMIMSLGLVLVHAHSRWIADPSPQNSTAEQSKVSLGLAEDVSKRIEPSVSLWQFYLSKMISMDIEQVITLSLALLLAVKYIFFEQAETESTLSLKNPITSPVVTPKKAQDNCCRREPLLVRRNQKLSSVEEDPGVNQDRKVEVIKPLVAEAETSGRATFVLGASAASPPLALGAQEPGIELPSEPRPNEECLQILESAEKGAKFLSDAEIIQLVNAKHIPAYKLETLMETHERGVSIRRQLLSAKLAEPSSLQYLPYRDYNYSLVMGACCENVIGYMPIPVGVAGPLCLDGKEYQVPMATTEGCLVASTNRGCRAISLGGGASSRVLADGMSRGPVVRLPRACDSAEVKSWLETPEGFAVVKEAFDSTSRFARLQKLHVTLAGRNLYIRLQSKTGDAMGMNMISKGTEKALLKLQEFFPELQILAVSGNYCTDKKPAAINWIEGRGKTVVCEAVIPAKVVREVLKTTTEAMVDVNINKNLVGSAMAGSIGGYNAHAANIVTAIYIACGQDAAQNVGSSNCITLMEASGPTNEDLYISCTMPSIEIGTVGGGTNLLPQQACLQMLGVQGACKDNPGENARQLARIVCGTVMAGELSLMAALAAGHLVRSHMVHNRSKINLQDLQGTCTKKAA
Assay: Rat Hepatic HMG-CoA Reductase test (conversion of 14C-HMG-CoA to 14C-mevalonic acid by rat hepatic microsomes)
Format: biochemical
Conditions: concentration producing 50% inhibition of enzyme activity, 100 µM HMG-CoA, 20 minutes at 37° C, read-out: Reductase 150
Procedure: 1) Rat Hepatic HMG-CoA Reductase
Rat hepatic HMG-CoA reductase activity is measured using a modification of the method described by Edwards (Edwards, P.A., et al., J. Lipid Res. 20:40, 1979). Rat hepatic microsomes are used as a source of enzyme, and the enzyme activity is determined by measuring the conversion of the ^14C-HMG-CoA substrate to 14C-mevalonic acid.
a. Preparation of Microsomes
Livers are removed from 2-4 cholestyramine-fed, decapitated, Sprague Dawley rats, and homogenized in phosphate buffer A (potassium phosphate, 0.04 M, pH 7.2; KCI, 0.05 M; sucrose, 0.1 M; EDTA, 0.03 M; aprotinin, 500 KI units/ml). The homogenate is spun at 16,000 x g for 15 minutes at 4°C. The supernatant is removed and recentrifuged under the same conditions a second time. The second 16,000 x g supernatant is spun at 100,000 x g for 70 minutes at 4° C. Pelleted microsomes are resuspended in a minimum volume of buffer A (3-5 ml per liver), and homogenized in a glass/glass homogenizer. […]
Standardized assays for the evaluation of inhibitors are conducted according to the following procedure. […] The first 0.5 ml is discarded, and the next 1.5 ml is collected and counted for both tritium and carbon 14 in 10.0 ml Opti-fluor scintillation fluid. Results are calculated as nmoles mevalonic acid produced per 20 minutes, and are corrected to 100% recovery of tritium. […]

IC50: 0.6 nM
Substance: (S)-4-[[[4-(4-Fluorophenyl)-1,2-bis(1-methylethyl)-5-phenyl-1H-pyrrol-3-yl]-ethynyl]hydroxyphosphinyl]-3-hydroxybutanoic acid, dilithium salt [SQ 34,346]
